Measured values published in patent publication US20180199575A1, “SUBSTITUTED OXOTETRAHYDROQUINOLINYLPHOSPHINIC ACID AND PHOSPHINIC ACID AMIDES OR SALTS THEREOF AND USE THEREOF TO INCREASE STRESS TOLERANCE IN PLANTS” (priority 2015, published 2018).

Biological target: T1, phosphatase ABI1 via the co-regulator RCAR11/PYR1 (Arabidopsis thaliana, UniProt O49686+P49597)
T1 sequence (O49686 1-191): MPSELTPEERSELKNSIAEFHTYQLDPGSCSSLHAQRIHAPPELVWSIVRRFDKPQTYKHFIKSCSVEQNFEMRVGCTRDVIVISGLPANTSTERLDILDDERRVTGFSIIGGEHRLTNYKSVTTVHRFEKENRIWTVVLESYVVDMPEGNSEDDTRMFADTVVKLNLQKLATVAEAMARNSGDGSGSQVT
T1 sequence (P49597 1-434): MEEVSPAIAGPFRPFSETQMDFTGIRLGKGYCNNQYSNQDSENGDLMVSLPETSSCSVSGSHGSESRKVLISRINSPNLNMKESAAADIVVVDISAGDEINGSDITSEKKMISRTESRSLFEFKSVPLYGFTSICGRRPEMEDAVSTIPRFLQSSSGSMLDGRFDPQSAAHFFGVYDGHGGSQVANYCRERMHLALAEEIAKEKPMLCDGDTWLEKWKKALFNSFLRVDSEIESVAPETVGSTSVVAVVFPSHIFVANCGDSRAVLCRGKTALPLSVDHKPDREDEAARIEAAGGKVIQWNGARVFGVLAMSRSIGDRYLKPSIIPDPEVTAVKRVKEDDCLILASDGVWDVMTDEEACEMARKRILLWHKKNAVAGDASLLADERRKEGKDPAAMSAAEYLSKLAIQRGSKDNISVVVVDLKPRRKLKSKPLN
Assay: In vitro assay: inhibition of the phosphatase ABI1 via the co-regulator RCAR11/PYR1 (dephosphorylation of 4-methylumbelliferyl phosphate, fluorescence)
Type: biochemical
Conditions: 5 μM substance in a solution of DMSO and water, MUP substrate
Excerpt: Effects of the phytohormone abscisic acid (ABA) on the behavior of plants under abiotic stress and the mechanism of action of ABA are described in the literature (cf. Abrams et al., WO97/23441, Park et al. Science, 2009, 324, 1068; Grill et al. Science, 2009, 324, 1064; Tanokura et al. Biophysics, 2011, 7, 123; Schroeder et al. Plant J. 2010, 61, 290). Therefore, it is possible with the aid of a suitable in vitro test system to derive a correlation between the action of ABA and the stress response of a plant under abiotic stress. In the event of water deficiency (drought stress), plants form the phytohormone abscisic acid (ABA). […]
The assay described hereinafter utilizes the inhibition of the phosphatase ABI1 via the co-regulator RCAR11/PYR1 aus Arabidopsis thaliana. For the determination of activity, the dephosphorylation of 4-methylumbelliferyl phosphate (MUP) was measured at 460 nm. […]
Enzyme buffer mix and substrate mix were made up 5 minutes prior to the addition and warmed to a temperature of 35° C. […] Finally, a relative fluorescence measurement was made at 35° C. with a BMG Labtech “POLARstar Optima” microplate reader using a 340/10 nm excitation filter and a 460 nm emission filter. […]

With CC1=CC(=O)CC(C)(C)[C@@]1(O)/C=C/C(C)=C\C(=O)O [abscisic acid] the ABI1 inhibition was “++++ (inhibition≥90%)”.
